Reference: patent US12461089B2, “Olfactory receptor involved in the perception of musk fragrance and the use thereof” (ChemoSensoryX Biosciences SA, priority 2017, dated 2025)
Changes are numbered by the printed parent chain. Read-outs that look alike come from different tables or passages of the source.

What was measured:
Format in all cases: cell-based
[1] = target: T1, OR5A2_variant 1 (Homo sapiens, UniProt Q8NGI9); assay: Luciferase reporter concentration-response analysis on OR5A2_variant 1
T1 construct: expressed in transfected cells; host or cells: HEK293T-RTP1A1/RTP2
T1 sequence (Q8NGI9 1-324): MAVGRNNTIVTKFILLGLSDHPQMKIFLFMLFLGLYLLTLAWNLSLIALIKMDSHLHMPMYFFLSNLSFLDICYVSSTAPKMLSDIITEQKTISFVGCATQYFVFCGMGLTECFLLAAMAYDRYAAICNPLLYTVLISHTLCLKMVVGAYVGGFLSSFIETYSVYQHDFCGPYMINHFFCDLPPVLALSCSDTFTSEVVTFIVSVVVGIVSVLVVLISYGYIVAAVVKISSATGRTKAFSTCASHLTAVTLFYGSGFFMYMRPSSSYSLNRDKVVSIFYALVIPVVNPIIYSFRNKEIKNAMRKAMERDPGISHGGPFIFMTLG
Protocol: (§1) HEK293T-RTP1A1/RTP2 cells were maintained in minimal essential medium (EMEM, Lonza) containing 10% fetal bovine serum (M10). These cells were generated by transfecting HEK293T with an expression vector containing the sequences of the chaperone proteins RTP1A1 and RTP2 and a resistance gene to puromycin, using Lipofectamine 2000.
(§2) Odorant molecules were diluted at a concentration of 1 mole/liter (M) into dimethyl sulfoxide (DMSO) to generate stock solutions.
(§3) For concentration-response analysis, serial dilutions of the tested molecules were prepared from stock solutions in EMEM plated into 96-well plates.
(§4) For the initial deorphanisation screening and dose-response analysis, a Luciferase-based gene reporter assay (Promega, Leiden, The Nederlands) was used. Briefly, cells were platted on Poly-D-lysine-coated 96-well and transfected with a plasmid containing the CRE-luciferase and a plasmid containing the olfactory receptor. Sixteen hours after transfection, the culture medium was replaced by serum-free EMEM containing the tested compounds at a determined concentration. After four hours of incubation at 37° C. degree, cells were lysed and processed for luminescence measurement. Luminescene emission was recorded. Results were expressed as luciferase activity (Relative […] Unit (RLU)) or as percentage of the response induced by 10 μM of the adenylate cyclase activator Forskolin. An empty plasmid is used as negative control.
(§5) 35 musk compounds from the four structurally different chemical groups previously described were tested in concentration-response analyses (Table 2). In each experiment, an empty vector was used as negative control (pEFIBRHO). […] Full results including the calculated EC50 are given in Table 2; “non active” represent negative experiments, no activation after testing.

[2] = target: T2, OR5AN1 (Homo sapiens, UniProt Q8NGI8, E89G); assay: Luciferase reporter concentration-response analysis on OR5AN1; conditions: concentration-response analysis, luciferase reporter, values given as negative (log) numbers, Non Active = no activation after testing; for EC50: read-out: calculated EC50, OR5AN1 (converted)
T2 construct: expressed in transfected cells; host or cells: HEK293T-RTP1A1/RTP2
T2 sequence (Q8NGI8 1-311 E89G): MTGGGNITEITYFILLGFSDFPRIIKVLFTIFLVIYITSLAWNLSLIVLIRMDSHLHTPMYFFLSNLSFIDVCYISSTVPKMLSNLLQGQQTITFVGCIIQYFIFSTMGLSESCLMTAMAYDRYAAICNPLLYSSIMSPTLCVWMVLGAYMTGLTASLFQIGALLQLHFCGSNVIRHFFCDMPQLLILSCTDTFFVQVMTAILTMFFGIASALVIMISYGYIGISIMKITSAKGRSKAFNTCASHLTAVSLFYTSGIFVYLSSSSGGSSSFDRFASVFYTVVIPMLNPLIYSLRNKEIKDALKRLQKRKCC
Protocol: as §1, with “2000. The recombinant cell population, used in these experiments, was selected by adding 10 μg/ml of puromycin into the culture medium and subsequently subcloned (WO 2014/191047 A1).” for “2000.”
as §2, §3, §4
In these analyses we also included ORs previously described as musk-specific receptors OR5AN1 (SEQ ID n° 7) (WO 2015/020158 A1, Shirasu et al. 2014 Neuron 81, 165-78, Sato-Akuhara N et al. 2016 J Neurosci. 36(16), 4482-91) and OR11A1 (SEQ ID n° 8) (WO 2016/201152 A1). […] Therefore, OR5A1 was included in the analyses. 35 musk compounds from the four structurally different chemical groups previously described were tested in concentration-response analyses (Table 2). In each experiment, an empty vector was used as negative control (pEFIBRHO). […] Full results including the calculated EC50 are given in Table 2; “non active” represent negative experiments, no activation after testing. […]

[3] = target: T3, OR11A1 (Homo sapiens, UniProt Q9GZK7); assay: Luciferase reporter concentration-response analysis on OR11A1
T3 construct: expressed in transfected cells; host or cells: HEK293T-RTP1A1/RTP2
T3 sequence (Q9GZK7 1-315): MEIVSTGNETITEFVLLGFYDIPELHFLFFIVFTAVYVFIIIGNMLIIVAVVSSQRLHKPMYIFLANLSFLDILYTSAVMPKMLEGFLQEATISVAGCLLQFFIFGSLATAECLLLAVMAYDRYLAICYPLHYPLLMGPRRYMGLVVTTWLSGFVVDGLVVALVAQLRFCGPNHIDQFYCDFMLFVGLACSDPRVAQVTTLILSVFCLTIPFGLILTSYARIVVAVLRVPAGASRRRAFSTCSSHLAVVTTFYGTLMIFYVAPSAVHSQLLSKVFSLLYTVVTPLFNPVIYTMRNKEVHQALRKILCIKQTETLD
Protocol: as §1, §2, §3, §4, §5
These compounds were tested in concentration-response analysis in luciferase assays, as described previously. In each experiment, an empty vector was used as negative control (pEFIBRHO).

[4] = target: T4, OR5A2_variant 2 (Homo sapiens, UniProt Q8NGI9, P172L); assay: Luciferase reporter concentration-response analysis on haplotype OR5A2_variant 2 (P172L); conditions: CRE-luciferase; empty vector pEFIBRHO as control
T4 construct: (P172L, OR5A2_variant 2); expressed in transfected cells; host or cells: HEK293T-RTP1A1/RTP2
T4 sequence (Q8NGI9 1-324 P172L): T1 sequence (Q8NGI9 1-324) with P172L
Protocol: as §1, §2, §3, §4
OR genes are highly variable, with many alleles resulting in differences in smell perception from person to person. These differences can be attributed to genetic variations like, for example, nucleotide polymorphisms. […] Amino acids alignment of the 2 haplotypes are represented in FIG. 4.
To test if the substitution could impact the musk sensitivity, luciferase assays were performed as described previously after transfection of both OR5A2 variants. Cells were treated with semi-logarithmic serial dilutions of musk compounds from the four structurally different groups described earlier. In each experiment, an empty vector was used as negative control (pEFIBRHO).

[5] = target: T5, OR2A5 (Homo sapiens, UniProt Q96R48, A202S/A255T/I126V); assay: Luciferase reporter concentration-response analysis on OR2A5; conditions: CRE-luciferase
T5 construct: expressed in transfected cells; host or cells: HEK293T-RTP1A1/RTP2
T5 sequence (Q96R48 1-311 I126V/A202S/A255T): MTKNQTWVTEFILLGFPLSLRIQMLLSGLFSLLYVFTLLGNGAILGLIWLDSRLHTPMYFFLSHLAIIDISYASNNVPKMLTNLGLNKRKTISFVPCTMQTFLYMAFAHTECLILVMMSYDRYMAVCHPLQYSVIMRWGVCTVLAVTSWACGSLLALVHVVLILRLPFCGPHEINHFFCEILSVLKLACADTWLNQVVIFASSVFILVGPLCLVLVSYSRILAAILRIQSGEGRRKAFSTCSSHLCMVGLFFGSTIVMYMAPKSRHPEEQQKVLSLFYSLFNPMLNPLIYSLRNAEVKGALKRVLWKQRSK
Protocol: as §1, with “2000. The recombinant cell population, used in these experiments, was selected by adding 10 μg/ml of puromycin into the culture medium and subsequently subcloned (WO 2014/191047 A1).” for “2000.”
as §2, §3, §4
In 1998, Krautwurst and collaborators have provided a model system for the study of ligand specificity and structure-function relationships for olfactory receptors (Krautwurst et al., 1998 Cell 95, 917-26). […] Based on their publication, a chimeric OR5A2_variant 1 olfactory receptor was created containing the TM2-TM7 amino acid sequence of OR5A2_variant 1 flanked by the N-teminal and C-terminal sequence of the olfactory receptor OR2A5 (cf. SEQ ID NO: 12). This chimeric OR5A2_variant 1 receptor shared 86 percent identity with the native OR5A2_variant 1 receptor (FIG. 6A and SEQ ID NO: 10).
(§6) To test if the amino acids substitution could impact the musk sensitivity, and specificity and to validate the Krautwurst's model, luciferase assays were performed as described previously after transfection of the chimeric OR5A2_variant 1. Cells were treated with semi-logarithmic serial dilutions of musk compounds from the four structurally different groups described earlier.

[6] = target: T6, chimeric OR5A2_variant 1 (Homo sapiens, UniProt Q8NGI9, F293L/H55R/I289L/M58T); assay: Luciferase reporter concentration-response analysis on chimeric OR5A2_variant 1; conditions: CRE-luciferase; empty vector pEFIBRHO as control
T6 construct: expressed in transfected cells; host or cells: HEK293T-RTP1A1/RTP2
T6 sequence (Q8NGI9 with tags, fused parts or gaps H55R/M58T/I289L/F293L): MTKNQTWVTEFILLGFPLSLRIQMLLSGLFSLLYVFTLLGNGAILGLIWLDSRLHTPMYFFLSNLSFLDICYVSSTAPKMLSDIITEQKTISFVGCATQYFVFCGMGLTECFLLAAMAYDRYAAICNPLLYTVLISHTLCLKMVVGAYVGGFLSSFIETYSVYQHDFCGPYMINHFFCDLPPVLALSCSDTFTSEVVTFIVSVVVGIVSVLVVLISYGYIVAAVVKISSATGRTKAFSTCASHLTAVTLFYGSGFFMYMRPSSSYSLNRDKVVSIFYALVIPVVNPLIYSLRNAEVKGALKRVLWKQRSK
Protocol: as §1, §2, §3, §4, §6
In each experiment, an empty vector was used as negative control (pEFIBRHO).

[7] = concentration-response analysis, luciferase reporter, values given as negative (log) numbers, read-out: calculated EC50, OR5A2 (converted)
[8] = concentration-response analysis, luciferase reporter, values given as negative (log) numbers
[9] = concentration-response analysis, luciferase reporter, values given as negative (log) numbers, Non Active = no activation after testing, read-out: calculated EC50, OR11A1 (converted)

Molecule `O=C1CCCCCCCCOCCCCCCO1` [Oxalide T] has an EC50 [1, 7] of 8.32 µM and an EC50 [2] of 32.4 µM.
In the case of ω-6-Hexadecen- lactone, the “calculated EC50, OR5A2” value [1, 8] is reported as −5.17 and the “calculated EC50, OR5AN1” value [2] is reported as −4.68.
`CC(=O)c1cc2c(cc1C)C(C)(C)C(C)CC2(C)C` (stereo not shown) [Tonalide ®] gave an EC50 [1, 7] of 0.759 µM and an EC50 [3, 9] of 18.2 µM.
For `O=C1CCCCCCCCCCCCCCO1` [Thibetolide = Exaltolide], the EC50 [1, 7] was 43.7 µM and the EC50 [2] was 87.1 µM.
Molecule `CC(=O)c1cc2c(cc1C)C(C)(C)C(C)C2(C)C` (stereo not shown) [Phantolide] has an EC50 [1, 7] of 4.57 µM and an EC50 [3, 9] of 7.59 µM.
In the case of `CC1COCc2cc3c(cc21)C(C)(C)C(C)C3(C)C` (stereo not shown) [Galaxolide ®], the EC50 [1, 7] is reported as 1.05 µM.
Helvetolide was tested, and the “calculated EC50, OR5A2” value [1, 8] was −3.86.
With Isoambrettolide the “calculated EC50, OR5A2” value [1, 8] was −4.72.
Molecule `CC1C/C=C\CCCCCCCCC(=O)OCC1` (stereo not shown) [nirvanolide] has an EC50 [1] of 19.5 µM and an EC50 [2] of 417 µM.
`O=C1CCCCCC/C=C\CCCCCCC1` [Globanone (Animusk)] showed an EC50 [1, 7] of 3.98 µM and an EC50 [2] of 2.24 µM.
For `C=C(C)C1CCC(C)=C1CC(C)(C)COC(=O)CC` (stereo not shown) [cyclopentenyl propionate musk], the EC50 [1] was 28.2 µM.
`c1ncc2c(n1)CCCCCCCCCC2` [Musk 77] was tested, and the EC50 [1, 7] was 5.13 µM and the EC50 [3, 9] was 9.12 µM.
For `CC1COCc2cc3c(cc21)C(C)(C)C(C)C3(C)C` (stereo not shown) [Galaxolide®], the “activation of OR5A2_variant 2 (P172L), concentration-response” value [4] was “not activated”, the “activation of OR5A2 (OR5A2_variant 1), concentration-response” value ([1]; CRE-luciferase, semi-logarithmic serial dilutions, empty vector pEFIBRHO as control) was “shows dose response curves” and the “activation of OR2A5, concentration-response” value [5] was “but not the OR2A5”. The “activation of chimeric OR5A2_variant 1, concentration-response” value [6] was “shows dose response curves”.
Molecule `O=C1CCCCCCCCC/C=C/CCCO1` [Habanolide] has an EC50 [1] of 16.2 µM and an EC50 [2] of 66.1 µM.
`C/C(=C\C(C)C)C(C)OC(C)(C)COC(=O)C1CC1` (stereo not shown) [Sylkolide] was tested, and the EC50 [1] was 17.8 µM.
In the case of Cyclopenta- decanone, the “calculated EC50, OR5AN1” value [2] is reported as −4.95.
`CC(=O)c1cc2c(cc1C)C(C)(C)C(C)C2C(C)C` (stereo not shown) [traseolide] showed an EC50 [1, 7] of 1.95 µM and an EC50 [3, 9] of 7.08 µM.
With `CC1CC(C)(C)c2ccc(C=O)cc2C1(C)C` (stereo not shown) [Fixal] the EC50 [1] was 10.2 µM and the EC50 [3] was 8.91 µM.
For `COc1c(C(C)(C)C)cc([N+](=O)[O-])c(C)c1[N+](=O)[O-]` [Musk Ambrette, 2,6-dinitro-3-methoxy-4-tert-butyltoluene], the EC50 [1, 7] was 8.71 µM and the EC50 [2] was 692 µM.
For muscone, the “calculated EC50, OR5A2” value [1, 8] was −5.25 and the “calculated EC50, OR5AN1” value [2] was −5.37.
`CC1CC(C)(C)C2=C(CC3(C)OC3C2)C1(C)C` (stereo not shown) [malaxone] showed an EC50 [1] of 29.5 µM and an EC50 [2] of 309 µM.
With `O=C1CCCCCCCCCCC(=O)OCCO1` [Musk MC4] the EC50 [1, 7] was 38 µM and the EC50 [2] was 75.9 µM.
Molecule `CC(=O)c1cc(C(C)(C)C)cc2c1CCC2(C)C` [crysolide] has an EC50 [1, 7] of 22.4 µM and an EC50 [2] of 120 µM.
Molecule `Cc1c([N+](=O)[O-])cc2c(c1[N+](=O)[O-])C(C)(C)CC2(C)C` [Moskene, 1,1,3,3,5-pentamethyl-4,6-dinitro-2H-indene] has an EC50 [1, 7] of 1.86 µM.
